From PubChem BioAssay AID1625 (Sanford-Burnham Center for Chemical Genomics, 2009)
Calls of active or inactive are those of the source.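 The calls were made as follows: active = z-score above 3 at 5 µM with at least 500 cells counted in the well; inconclusive = wells under 500 cells, flagged as cytotoxic or low count; inactive = the rest.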

Tested on: MIN6 insulin promoter-GFP reporter, high-content imaging
Test: up-regulation of insulin promoter-GFP reporter – imaging, high-content screening, mouse beta cells (AID 1625)

C=CCN1C(=O)/C(=C/C=C2/N(CC)c3ccc(S(=O)(=O)N(C)C)cc3N2CC)SC1=S
EC50: > 16 µM (inactive)

N#C/C(=C\c1ccc(N2CCOCC2)o1)C(=O)NCCc1ccccc1
EC50: > 16 µM (inactive)

COc1cccc(/C=N/NC(=O)c2oc3nc(-c4ccccc4)cc(-c4ccco4)c3c2N)c1
EC50: > 16 µM (inactive)

N#Cc1ccc(-c2ccccc2)nc1SCC(=O)c1cccc(Cl)c1
EC50: > 16 µM (inactive)

COc1cc2nc(/C=C/c3ccc(N(C)C)cc3)sc2cc1SC
EC50: 7.43 µM

Nc1c(C(=O)N/N=C/c2ccccc2Cl)oc2nc(-c3ccccc3)cc(-c3ccco3)c12
EC50: > 16 µM (inactive)

Cc1ccc(C(=O)NN2C(=O)/C(=C/c3cn(C)c4ccccc34)SC2=S)cc1
EC50: > 16 µM (inactive)

Cc1ccc(/C(C#N)=C\c2ccc(N3CCOCC3)o2)cc1
EC50: > 16 µM (inactive)

COc1cc(OC)c(OC)cc1/C=C1\Oc2cc(OS(C)(=O)=O)ccc2C1=O
EC50: > 16 µM (inactive)

O=[N+]([O-])c1ccc(N/N=C/c2c[nH]c3ccccc23)cc1
EC50: 10.8 µM (inactive)

COc1ccc(/C(O)=C/c2nc3ccc(C(=O)NCCc4cccc(C)c4)cc3[nH]c2=O)cc1OC
EC50: > 16 µM (inactive)

Cc1cc(/C=C2\NC(=S)N(C)C2=O)ccc1N1CCCC1
EC50: 8.97 µM

COc1ccc(NC(=O)/C(C#N)=C\c2ccc(N3CCOCC3)o2)cc1
EC50: 9.14 µM

Cc1c2ccccc2nc2c(F)c(NC(C)C)c(F)c(F)c12
EC50: > 16 µM (inactive)

COc1cc([C@@H]2[C@H]3CN(C)CC=C3C(C#N)=C(N)C2(C#N)C#N)cc2c1OCO2
EC50: 8.67 µM

COc1cccc(C2C3CN(C)CC=C3C(C#N)=C(N)C2(C#N)C#N)c1OC (stereo not given)
EC50: 12.3 µM (inactive)

CCN(CC)c1ccc(/C=C(/C#N)C(=O)NC(C)C)o1
EC50: > 16 µM (inactive)

COc1ccccc1N/C=C/c1onc(C)c1[N+](=O)[O-]
EC50: 2.22 µM

CCCCCn1nc(-c2ccccc2)c2nc3ccccc3nc21
EC50: 8.72 µM

CN1/C(=C\C=C(/C#N)C(=O)Nc2ccccc2F)C(C)(C)c2ccccc21
EC50: > 16 µM (inactive)

CCOC(=O)CC1C(=O)NCCN1c1nc2ccc(C)cn2c(=O)c1/C=C1\SC(=S)N(CC(C)C)C1=O (stereo not given)
EC50: 6.84 µM

Cc1ccc(S(=O)(=O)CCSc2nc(C)cc(C(F)(F)F)c2C#N)cc1
EC50: > 16 µM (inactive)

CCCNc1c(F)c(F)c2c(C)c3ccccc3nc2c1F
EC50: 8.02 µM

Cc1cc(/C=C2/C(=O)N(C)C(=S)N2C)ccc1N1CCCC1
EC50: 1.61 µM

O=[N+]([O-])c1ccc(/C=C/C2=NN(c3ccccc3)C(c3ccco3)C2)o1 (stereo not given)
EC50: > 16 µM (inactive)

CCCCN1C(=O)/C(=C/C=C2\N(C)c3ccccc3C2(C)C)SC1=S
EC50: 5.6 µM

CCOC(=O)Cc1csc(NC(=O)c2sc3nc4c(C)cc(C)cc4cc3c2N)n1
EC50: > 16 µM (inactive)

CCN(CC)c1ccc(/C=C2\SC(=O)N(C(C)C)C2=O)o1
EC50: 4.61 µM

CCCN1CC=C2C(C#N)=C(N)C(C#N)(C#N)C(c3cccc(OC)c3OC)C2C1 (stereo not given)
EC50: 7.34 µM

Cn1cc(/C=C2\SC(=S)N(NC(=O)c3ccccc3Cl)C2=O)c2ccccc21
EC50: > 16 µM (inactive)

COc1cc2c3nnc(-c4ccc(F)cc4)c-3cn(Cc3ccccc3)c2cc1OC
EC50: 2.89 µM

Cc1cc(N/N=C/c2ccc([N+](=O)[O-])o2)nc2ccccc12
EC50: > 16 µM (inactive)

CCN1CC=C2C(C#N)=C(N)C(C#N)(C#N)C(CCc3ccccc3)C2C1 (stereo not given)
EC50: 8.02 µM

C=CCN1C(=O)/C(=C/c2ccc(N(C)C)cc2)S/C1=N\c1nnc(CC)s1
EC50: 3.86 µM

O=c1oc2c3c4c(cc2c(C(F)(F)F)c1CCN1CCOCC1)CCCN4CCC3
EC50: 6.05 µM

COc1cc(N2CCCC2)c(OC)cc1/C=C1/NC(=S)NC1=O
EC50: 4.73 µM

N#C/C(=C\c1ccc(-c2ccc(C(=O)O)cc2)o1)c1nc2ccccc2[nH]1
EC50: > 16 µM (inactive)

CC1=CN2C(=N)/C(=C/c3ccc([N+](=O)[O-])o3)C(=O)N=C2S1
EC50: > 16 µM (inactive)

CCCN1C(=O)c2cccc3c(N4CCCCC4)ccc(c23)C1=O
EC50: > 16 µM (inactive)

N#Cc1c(-c2ccco2)cc(C2CC2)nc1SCC(=O)c1ccccc1
EC50: > 16 µM (inactive)

CCCCNc1ccc2c3c(cccc13)C(=O)N(CCCC)C2=O
EC50: 1.69 µM

N#C/C(=C\c1ccc(N2CCCCC2)o1)C(=O)Nc1cccc(Br)c1
EC50: 0.605 µM

CCCN(CCC)c1ccc(/C=C/c2ccc3cc(OCC)ccc3n2)cc1
EC50: > 16 µM (inactive)

CC(=O)c1c(C)[nH]c(-c2ccccc2)nc1=S
EC50: 9.08 µM

O=C(/C=C/c1cn(CC(O)CN2CCCCCC2)c2ccccc12)c1cccs1 (stereo not given)
EC50: > 16 µM (inactive)

COc1cc2c(cc1OC)C1=CC(=O)C(=O)N1C(C)(C)C2
EC50: 11.5 µM (inactive)

CN1CC=C2C(C#N)=C(N)C(C#N)(C#N)C(c3ccsc3)C2C1 (stereo not given)
EC50: 10.4 µM (inactive)

CC1CCCCC1NC(=O)COC(=O)c1c2c(nc3ccccc13)/C(=C/c1ccco1)CC2 (stereo not given)
EC50: > 16 µM (inactive)

CCOCCCNc1nc2c(C)cccn2c(=O)c1/C=C1\SC(=S)N(CC(C)C)C1=O
EC50: > 16 µM (inactive)

CCCCOc1ccc(-c2cc(C(F)(F)F)c(C#N)c(SCC(=O)O)n2)cc1
EC50: > 16 µM (inactive)
